Assay: Lipophilicity (log D), shake-flask method
Format: physicochemical
Details: from log D values
Procedure: The log D values were determined, using the shake-flask method as previously described (Wurzer et al. [2020]). The radiolabeled tracer (0.5–1 MBq, 20 μL) was dissolved in 1 mL of a 1/1 mixture (v/v) of PBS (pH 7.4) and n-octanol in a reaction vial (n = 6). After vigorous mixing of the suspension for 3 min at r.t., the vial was centrifuged at 9000 rpm (ca. 7700×g) for 5 min at room temperature (Heraeus Biofuge 15, Thermo Fisher Scientific, Darmstadt, Germany) and 150 μL aliquots of both layers were measured in a ɣ-counter.

Compound: CC(C)(C)[Si](F)(c1ccc(C(=O)NC[C@@H](NC(=O)CN2CCN(CC(=O)[O-])CCN(CC(=O)[O-])CCN(CC(=O)[O-])CC2)C(=O)N[C@H](CCCCNC(=O)CCC(=O)NCCC[C@@H](NC(=O)CC[C@H](NC(=O)N[C@@H](CCc2nnn[nH]2)C(=O)O)C(=O)O)C(=O)O)C(=O)O)cc1)C(C)(C)C.[Lu+3] [^natLu/[^177Lu]Lu-11]
- increase of lipophilicity compared to [177Lu]Lu-1: ~ 7.4 fold
